According to US20260306527A1, “PRMT INHIBITOR COMPOUNDS AND THE USES THEREOF” (Purdue Research Foundation, priority 2023, published 2026):

Columns and labels:
[1] = system: PRMT3; assay: SAHH-coupled fluorescence assay, inhibition of PRMT3; type: biochemical; conditions: read-out: IC50 [µM] | PRMT3
In short: (§1)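 Coupled SAHH/ThioGlo4 fluorescence read-out (ex 380 nm, em 505 nm) of PRMT3 (0.25 μM) methylation with 30 μM AdoMet and 5 μM SAHH. Buffer was 20 mM Tris pH 7.5 with 0.01% Triton X-100. Run in duplicate.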

[2] = molecular target: T1, PRMT4 (Homo sapiens, UniProt Q86X55); assay: radioactive assay (Reaction Biology Corp.), inhibition of PRMT4; type: biochemical
T1 sequence (Q86X55 1-608): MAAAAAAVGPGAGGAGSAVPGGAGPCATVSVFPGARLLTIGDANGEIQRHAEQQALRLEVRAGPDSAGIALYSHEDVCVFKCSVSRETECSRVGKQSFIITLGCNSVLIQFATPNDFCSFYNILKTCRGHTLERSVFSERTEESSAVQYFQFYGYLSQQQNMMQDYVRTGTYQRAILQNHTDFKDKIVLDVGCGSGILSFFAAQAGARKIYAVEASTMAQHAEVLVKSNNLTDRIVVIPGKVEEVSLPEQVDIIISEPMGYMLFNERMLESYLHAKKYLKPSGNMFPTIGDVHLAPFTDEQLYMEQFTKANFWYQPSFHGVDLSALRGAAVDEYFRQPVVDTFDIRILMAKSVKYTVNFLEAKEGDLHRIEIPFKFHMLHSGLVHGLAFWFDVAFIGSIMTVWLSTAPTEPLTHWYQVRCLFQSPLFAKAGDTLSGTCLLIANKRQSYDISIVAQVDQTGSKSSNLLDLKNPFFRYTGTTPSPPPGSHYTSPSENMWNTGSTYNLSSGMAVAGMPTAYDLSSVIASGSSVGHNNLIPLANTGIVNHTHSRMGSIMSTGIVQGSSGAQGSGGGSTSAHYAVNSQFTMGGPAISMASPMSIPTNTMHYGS
Procedure: (§2) Next, the inhibition activity of the library was investigated for five PRMT members from type I PRMTs.
(§3) The PRMT 4, 6 and 8 methylation assays were performed by Reaction Biology corp.

[3] = system: PRMT4; assay: as above; type: biochemical
Procedure: as §2, §3

[4] = molecular target: PRMT6 (Homo sapiens, UniProt Q96LA8); assay: radioactive assay (Reaction Biology Corp.), inhibition of PRMT6; type: biochemical
PRMT6, sequence (Q96LA8 whole entry, species assumed): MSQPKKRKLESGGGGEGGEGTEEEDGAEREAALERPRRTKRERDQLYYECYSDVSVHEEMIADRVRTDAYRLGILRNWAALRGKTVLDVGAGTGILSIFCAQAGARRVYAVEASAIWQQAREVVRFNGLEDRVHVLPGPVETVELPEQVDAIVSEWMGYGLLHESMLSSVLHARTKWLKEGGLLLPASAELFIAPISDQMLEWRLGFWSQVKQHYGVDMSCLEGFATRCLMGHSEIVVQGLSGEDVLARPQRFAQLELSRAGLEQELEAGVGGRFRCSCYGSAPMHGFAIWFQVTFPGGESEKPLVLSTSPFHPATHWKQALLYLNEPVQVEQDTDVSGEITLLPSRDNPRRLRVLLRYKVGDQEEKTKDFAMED
Procedure: as §2, §3

[5] = molecular target: PRMT8 (Homo sapiens, UniProt Q9NR22); assay: radioactive assay (Reaction Biology Corp.), inhibition of PRMT8; type: biochemical
PRMT8, sequence (Q9NR22 whole entry, species assumed): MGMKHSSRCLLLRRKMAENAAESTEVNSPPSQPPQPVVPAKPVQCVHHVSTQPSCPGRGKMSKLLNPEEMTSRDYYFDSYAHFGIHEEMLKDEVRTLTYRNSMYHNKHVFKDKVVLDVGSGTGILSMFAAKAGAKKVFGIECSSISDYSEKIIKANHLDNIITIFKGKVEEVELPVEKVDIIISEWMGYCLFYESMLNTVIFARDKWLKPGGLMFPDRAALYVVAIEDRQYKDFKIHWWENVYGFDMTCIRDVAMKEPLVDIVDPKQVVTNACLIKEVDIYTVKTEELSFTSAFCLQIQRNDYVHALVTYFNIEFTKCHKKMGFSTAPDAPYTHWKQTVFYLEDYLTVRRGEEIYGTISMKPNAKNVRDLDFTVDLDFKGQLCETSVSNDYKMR
Procedure: as §2, §3

[6] = molecular target: T2, PRMT1 (Homo sapiens, UniProt Q99873); assay: selectivity of YD1113/YD1290 on PRMT panel, PRMT1; type: biochemical; conditions: 10 μM; PRMT panel
T2 construct: made in house
T2 sequence (Q99873 whole entry, species assumed): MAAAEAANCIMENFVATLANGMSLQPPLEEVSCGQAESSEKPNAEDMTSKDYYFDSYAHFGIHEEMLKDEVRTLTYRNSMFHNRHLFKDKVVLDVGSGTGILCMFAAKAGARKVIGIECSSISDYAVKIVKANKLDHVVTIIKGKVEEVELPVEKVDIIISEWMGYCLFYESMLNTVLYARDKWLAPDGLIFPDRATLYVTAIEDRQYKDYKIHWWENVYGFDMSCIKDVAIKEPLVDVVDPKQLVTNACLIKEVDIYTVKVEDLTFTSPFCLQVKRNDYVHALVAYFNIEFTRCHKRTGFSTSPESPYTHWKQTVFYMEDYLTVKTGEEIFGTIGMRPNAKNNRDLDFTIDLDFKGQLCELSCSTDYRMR
Procedure: The selectivity of compounds YD1113 and YD1290 on PRMTs were performed by Reaction Biology Corp.
Next, the selectivity of YD1113 was investigated on a panel of PRMTs at 10 μM.
After validating the benzyl urea moiety as an unconventional homocysteine mimic of SAH for PRMTs, it was hypothesized that incorporating the benzyl urea moiety into the original pan PRMT inhibitor II757 would build a potent bisubstrate inhibitor. […] To enable a stable tri-substitution, the sulfur atom with a nitrogen atom was replaced. YD1290 was synthesized following the reported methods 9, 15 and tested in a radioactivity assay for PRMTs (FIG. 6b).

[7] = molecular target: T3, PRMT3 (Homo sapiens, UniProt O60678); assay: selectivity of YD1113/YD1290 on PRMT panel, PRMT3; type: biochemical
In short: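 Radioactivity-based PRMT activity assay run by an external provider; YD1113 profiled across the PRMT panel at 10 μM.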
Target sequence in this assay (O60678 whole entry, species assumed): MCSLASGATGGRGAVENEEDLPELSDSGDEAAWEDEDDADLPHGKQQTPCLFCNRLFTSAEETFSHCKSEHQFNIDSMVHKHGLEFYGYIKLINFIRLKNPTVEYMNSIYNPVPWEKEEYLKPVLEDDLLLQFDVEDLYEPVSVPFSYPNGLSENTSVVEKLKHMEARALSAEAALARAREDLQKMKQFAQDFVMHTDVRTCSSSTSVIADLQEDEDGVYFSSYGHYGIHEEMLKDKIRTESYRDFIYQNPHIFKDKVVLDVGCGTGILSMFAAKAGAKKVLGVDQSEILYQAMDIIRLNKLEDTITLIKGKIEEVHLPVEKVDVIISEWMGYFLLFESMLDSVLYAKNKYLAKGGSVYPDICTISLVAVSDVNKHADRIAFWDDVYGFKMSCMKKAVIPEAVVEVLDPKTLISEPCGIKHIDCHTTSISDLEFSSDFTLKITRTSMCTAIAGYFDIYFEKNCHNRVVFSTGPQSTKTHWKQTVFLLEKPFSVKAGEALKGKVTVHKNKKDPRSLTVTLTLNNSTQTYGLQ

[8] = molecular target: T3, PRMT3; assay: SAHH-coupled fluorescence assay, inhibition of PRMT3; type: biochemical; parameters: PRMT3 (residues 211-531) was cloned into the pET28a-MHL expression vector; tag of the pET28a-MHL vector (not described); made in house; host or cells: Escherichia coli BL21(DE3)
In short: as §1
Target sequence in this assay (O60678 211-531): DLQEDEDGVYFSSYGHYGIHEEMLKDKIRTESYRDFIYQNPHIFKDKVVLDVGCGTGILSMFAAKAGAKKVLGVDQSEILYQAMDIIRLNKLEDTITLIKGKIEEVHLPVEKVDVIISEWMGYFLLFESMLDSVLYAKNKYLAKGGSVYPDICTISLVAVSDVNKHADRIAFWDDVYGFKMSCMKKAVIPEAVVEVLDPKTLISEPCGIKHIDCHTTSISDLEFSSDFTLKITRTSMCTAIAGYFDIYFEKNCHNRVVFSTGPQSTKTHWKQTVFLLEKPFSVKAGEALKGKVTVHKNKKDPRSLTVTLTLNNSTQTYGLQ

[9] = molecular target: T3, PRMT3; assay: thermal shift assay PRMT3; type: binding; parameters: PRMT3 (residues 211-531) was cloned into the pET28a-MHL expression vector; tag of the pET28a-MHL vector (not described); made in house; host or cells: Escherichia coli BL21(DE3); conditions: 100 μM compound, 20 μM protein
Procedure: The fluorescence-based thermal shift assay was performed using a StepOne plus qPCR instrument (Thermal Fisher). For PRMT1, 10 μM of protein was mixed with 2× sypro orange and DMSO, or 100 μM SAM, or 100 μM YD1113, or 100 μM YD1290 in a buffer consisting of 2.5 mM HEPES (pH=7.0), 25 mM NaCl, 25 μM EDTA, 50 μM TCEP, 0.01% Triton X-100. For PRMT3, 20 μM of protein was mixed with 2× sypro orange and DMSO, or 100 μM SAM, or 100 μM YD1113, or 100 μM YD1290 in a buffer consisting of 20 mM Tris (pH=7.5), 0.01% Triton X-100. For PRMT4, 20 μM of protein was mixed with 2× sypro orange and DMSO, or 100 μM SAM, or 100 μM YD1113, or 100 μM YD1290 in a buffer consisting of 20 mM bicine (pH=8.5), 0.01% Triton X-100. All samples were heated from 25° C. to 75° C. at an increased rate of 0.5° C. per minute. Protein denaturation was monitored by the increased fluorescence signal of Sypro Orange, which captures exposed hydrophobic residues during thermal unfolding. The recorded curves were analyzed by the software StepOne plus and plotted in GraphPad Prism 8 software.
Next, the thermal shift assay (TSA) was conducted as an orthogonal method to examine the effects of YD1290 on the thermal stability of PRMT1, 3, and 4 (Figure S1).
Target sequence in this assay (O60678 211-531): as above

**Q.** Nc1ncnc2c1ncn2[C@@H]1O[C@H](CSCCNC(=O)NCc2ccccc2)[C@@H](O)[C@H]1O [Compound 7a, 1-(2-((((2S,3S,4R,5R)-5-(6-amino-9H-purin-9-yl)-3,4-dihydroxytetrahydrofuran-2-yl)methyl)thio)ethyl)-3-benzylurea] was tested. Which IC50 [1] did it give?
**A.** 0.52 ± 0.07 µM

**Q.** What about the inhibition at 10 µM [2] of the same compound?
**A.** 97%

**Q.** What about the IC50 [3] of the same compound?
**A.** 140 ± 13 nM

**Q.** And the inhibition at 10 µM [4]?
**A.** 89%

**Q.** What about the inhibition at 10 µM [5] of the same compound?
**A.** 12%

**Q.** What about the inhibition at 10 µM [6] of the same compound?
**A.** < 35%

**Q.** And the IC50 [7]?
**A.** 321 nM

**Q.** What about the inhibition at 10 µM [8] of the same compound?
**A.** 80%

**Q.** And the ΔTm at 100 µM [9]?
**A.** 5.8 °C
